Consider 11 compounds from US20050032646A1, “Agents for the regulation of gametophytic self-incompatibility and a control method for the breakdown of gametophytic self-incompatibility using the agents” (priority 2002, published 2005).

Each structure is given as a SMILES string.

The subject of one series is Hongro apple. As to the kind of experiment: Breakdown of the self-incompatibility in Hongro apple (self-pollination rate, field). The format is in vivo. The conditions noted are these: 25 days after the treatment. As for the experimental part:
In the field application experiment, Hongro apple (the Rosaceae) which has a very low self-pollination rate (<5%) was isolated single-genetically by covering up whole plants with a fine-meshed net to exclude any pollinating insects. The agent of the present invention was treated enough to get-wet flowers at various concentrations with a micro-spray at 9:00-11:00 AM. The target of the agent was the first-blooming primary apple flower. The self-pollination rate was investigated 25 days after the treatment and compared with no treatment and artificial cross-pollination.

Series [1] has as its system style-specific S RNase of Fuji apple. As to the kind of experiment: Inhibition of the activity of a style-specific S RNase by the agents. The format is biochemical. Conditions: optical density at 260 nm (A260), agent 2.0 mM, no treatment 1.10. The procedure:
Inhibition of S RNase activity by an agent of the present invention was measured as follows: The standard solution of 500 μL of 10 mM sodium phosphate (pH 7.0) with an agent (2.0 mM), and 500 μL of torula yeast rRNA (5 mg/mL) was pre-incubated for 10 min at 37° C. To the substrate solution, the 20 μL of the style-specific S RNase (200 ng) of Fuji apple was added, then the solution was incubated for 30 min at 37° C. A fraction of 200 μL was collected and 40 μL of stop buffer (ice-cold 25% HCIO4, 0.75% uranyl acetate) was added, then mixed and centrifuged at 12,000 rpm for 5 min. And 50 μL of the supernatant was diluted with 950 μL of dd H2O, then the solution was centrifuged and measured the optical density at 260 nm (A260) (Singh A. et al., Plant Physilolgy, 96: 61-68,1991).

A further series has as its system Hongro apple flowers. As to the kind of experiment: Side-effect of the agents toward Hongro apple flowers. The class given is in vivo. Also noted: key: 0: no side-effect is observed, and it is same as no treatment of the agents; 1: the side-effect are observed in flowers, but they recover to normal fruition in a week; 2: a fall-out of flowers and 10% decrease in fruition rate; 3: about 40% loss; 4: 60% loss; 5: a severe loss in fruition. As for the experimental part:
To investigate the side-effect of the agent, various concentrations of the agents were treated to the flowers of Hongro apple.

The test system of a further series is Lycopersicon peruvianum. As to the kind of experiment: Breakdown of the self-incompatibility in Lycopersicon peruvianum (fruition rate, greenhouse). The format is in vivo. The procedure:
To verify the inhibition of a style-specific S RNase and the suppression of SI system with an agent of the present invention in a practical cultivating Environment, a wild-type tomato (Lycopersicon peruvianum) which has a gametophytic SI system was cultivated in a greenhouse at genetically insulated environment and was treated with an S RNase inhibitor of the present invention.
To determine the treatment period of an S RNase inhibitor, the inhibitor was applied to flowers either at the early blooming period (budding formation period to full blooming), or the middle blooming period (full blooming), or the late blooming period (1 day after full blooming period of petal), respectively. Each inhibitors in 0.1 mM aqueous solution (except the ZnSO4 (1 mM) and CuSO4 (1.0 mM) solution) was treated enough to get-wet flowers ith a micro-spray at 9:00-11:00 AM when the pollination of plant occurs most actively. The experiment with 25 blooming flowers (organ containing a stamen, a stigma, a petal, etc.) was repeated 4 times and the fruition rate ws investigated and the results are shown in Table 2.

A further series deals with 20-Century pear. As to the kind of experiment: Breakdown of the self-incompatibility in 20-century pear (fertilization rate, field). The format is in vivo. Conditions: 600 μM, sprayed 5 and 2 days before full bloom, 14 days after the treatment. The procedure:
In a field test, 20-Century pear (the Rosaceae) which has self-incompatibility system was isolated single-genetically by covering up selected branches or whole plants with a fine-meshed net to exclude any pollinating insects. The aqueous of 600 μM solution of an agent of the present invention was treated enough to get-wet flowers with a micro-spray at 9:00-11:00 AM. The agent solution was micro-sprayed 2 times; first at 5 days before full bloom and second at 2 days before full bloom. The reference was artificial cross-pollination at full bloom. The fertilization rate was investigated 14 days after the treatment and compared with no treatment and artificial cross-pollination.

Where [2] appears, read: agent 0.1 mM, treated 1 day after full blooming.
Where [3] appears, read: agent 0.1 mM, treated 1 day before full blooming.
Where [4] appears, read: agent 0.1 mM, treated 2 days after full blooming.
[5] abbreviates: agent 0.1 mM, treated 2 days before full blooming.
Setting [6] is: agent 0.1 mM, treated 3 days before full blooming.
Where [7] appears, read: agent 0.1 mM, treated 4 days before full blooming.
Setting [8] is: agent 0.1 mM, treated 5 days before full blooming.
[9] abbreviates: agent 0.1 mM, treated 6 days before full blooming.
Setting [10] is: agent 0.1 mM, treated 7 days before full blooming.
[11] abbreviates: agent 0.1 mM, treated at full blooming (0 day).
[12] abbreviates: agent 1.0 mM, treated 1 day after full blooming.
Setting [13] is: agent 1.0 mM, treated 1 day before full blooming.
Where [14] appears, read: agent 1.0 mM, treated 2 days after full blooming.
[15] abbreviates: agent 1.0 mM, treated 2 days before full blooming.
Where [16] appears, read: agent 1.0 mM, treated 3 days before full blooming.
Where [17] appears, read: agent 1.0 mM, treated 4 days before full blooming.
Where [18] appears, read: agent 1.0 mM, treated 5 days before full blooming.
The mark [19] stands for this setting: agent 1.0 mM, treated 6 days before full blooming.
Setting [20] is: agent 1.0 mM, treated 7 days before full blooming.
Where [21] appears, read: agent 1.0 mM, treated at full blooming (0 day).

On to `COCCOCC(=O)[O-].COCCOCC(=O)[O-].[Cu+2]` [Cu(II) 2-(2-methoxyethoxy) acetate], for which the self-pollination rate in the series with Hongro apple (concentration 0.01 mM) was >10%; with Hongro apple (concentration 0.03 mM), >30%; in the series on Hongro apple (concentration 0.10 mM), >50%; in the series with Hongro apple (concentration 0.30 mM), >50%; in the series with Hongro apple (concentration 1.0 mM), >50%.

Consider `COCCOCCOCC(=O)[O-].COCCOCCOCC(=O)[O-].[Cu+2]` [Cu(II) 2-(2-methoxyethoxy)ethoxyacetete, Cu(II) 2-(2-methoxyethoxy) ethoxyacetete], for which, in series [1], the “OD (2.0 mM)” value was determined as 0.63. The side-effect index with Hongro apple flowers (1.0 mM) turned out to be 0; in the series with Hongro apple flowers (5.0 mM), 0; with Hongro apple flowers (20.0 mM), 1. The fruition rate in the series with Lycopersicon peruvianum (setting [2]) is recorded as 0%; with Lycopersicon peruvianum (setting [3]), >60%; with Lycopersicon peruvianum (setting [4]) it was 0%; with Lycopersicon peruvianum (setting [5]), >50%; with Lycopersicon peruvianum (setting [6]) it was >10%; in the series with Lycopersicon peruvianum (setting [7]), <10%. Also, the fruition rate in the series with Lycopersicon peruvianum (setting [8]) is 0%; in the series with Lycopersicon peruvianum (setting [9]), 0%; with Lycopersicon peruvianum (setting [10]) it was 0%; with Lycopersicon peruvianum (setting [11]) it was >50%. In the series with 20-Century pear, this compound had a fertilization rate of 53%.

`COCCOCC(=O)[O-].COCCOCC(=O)[O-].[Cu+2]` [Cu(II) 2-methoxyethoxyacetate]: the “OD (2.0 mM)” value in series [1] is 0.65. The side-effect index with Hongro apple flowers (1.0 mM) is 0; in the series with Hongro apple flowers (5.0 mM) it was 0; in the series with Hongro apple flowers (20.0 mM) it was 2. In addition, the fruition rate is given as 0% in the series with Lycopersicon peruvianum (setting [2]); >50% in the series with Lycopersicon peruvianum (setting [3]); 0% in the series with Lycopersicon peruvianum (setting [4]); >40% with Lycopersicon peruvianum (setting [5]); >10% in the series on Lycopersicon peruvianum (setting [6]); <10% in the series on Lycopersicon peruvianum (setting [7]). In addition, the fruition rate in the series with Lycopersicon peruvianum (setting [8]) is reported as 0%; in the series with Lycopersicon peruvianum (setting [9]) it was 0%; in the series with Lycopersicon peruvianum (setting [10]), 0%; with Lycopersicon peruvianum (setting [11]), >40%. In the series with 20-Century pear, the fertilization rate stood at 58%.

With `COCCOCCOCC(=O)[O-].COCCOCCOCC(=O)[O-].[Cu+2]` [Cu(II) 2-{2-(2-methoxyethoxy)ethoxy} acetate], the self-pollination rate in the series on Hongro apple (concentration 0.01 mM) is on record as >10%; in the series with Hongro apple (concentration 0.03 mM) it was >20%; in the series on Hongro apple (concentration 0.10 mM), >50%; in the series on Hongro apple (concentration 0.30 mM) it was >50%; in the series with Hongro apple (concentration 1.0 mM), >50%.

Take `O=C([O-])[C@H](O)[C@@H](O)[C@H](O)[C@H](O)CO.O=C([O-])[C@H](O)[C@@H](O)[C@H](O)[C@H](O)CO.[Cu+2]` [Cu(II) Gluconate]: the “OD (2.0 mM)” value in series [1] is recorded as 0.70. The compound further had a fertilization rate in the series on 20-Century pear of 51%.

Take `O=S(=O)([O-])[O-].[Cu+2]` [CuSO4, reference compound]: the “OD (2.0 mM)” value in series [1] came to 0.70. Besides, the side-effect index in the series with Hongro apple flowers (1.0 mM) was 3; with Hongro apple flowers (5.0 mM) it was 5; in the series with Hongro apple flowers (20.0 mM), 5. In addition, the fruition rate with Lycopersicon peruvianum (setting [12]) is listed as 0%; in the series with Lycopersicon peruvianum (setting [13]) it was 0%; with Lycopersicon peruvianum (setting [14]), 0%; with Lycopersicon peruvianum (setting [15]), 0%; in the series with Lycopersicon peruvianum (setting [16]), <5%; in the series with Lycopersicon peruvianum (setting [17]), <5%. In addition, the fruition rate in the series on Lycopersicon peruvianum (setting [18]) is >10%; in the series with Lycopersicon peruvianum (setting [19]), >10%; in the series on Lycopersicon peruvianum (setting [20]), >10%; in the series with Lycopersicon peruvianum (setting [21]) it was 0%. Besides, the self-pollination rate was 0% in the series on Hongro apple (concentration 0.01 mM); 0% with Hongro apple (concentration 0.03 mM); 0% in the series on Hongro apple (concentration 0.10 mM); 0% in the series with Hongro apple (concentration 0.30 mM); <10% in the series on Hongro apple (concentration 1.0 mM).

In the case of `COCCOCCOCC(=O)[O-].COCCOCCOCC(=O)[O-].[Zn+2]` [Zn(II) 2-(2-methoxyethoxy)ethoxyacetete, Zn(II) 2-(2-methoxyethoxy) ethoxyacetete], the “OD (2.0 mM)” value in series [1] worked out at 0.62. Moreover, the side-effect index with Hongro apple flowers (1.0 mM) came out at 0; in the series with Hongro apple flowers (5.0 mM), 0; with Hongro apple flowers (20.0 mM), 1. The fruition rate is recorded as 0% with Lycopersicon peruvianum (setting [2]); >60% in the series with Lycopersicon peruvianum (setting [3]); 0% in the series with Lycopersicon peruvianum (setting [4]); >50% in the series on Lycopersicon peruvianum (setting [5]); >10% with Lycopersicon peruvianum (setting [6]); <10% with Lycopersicon peruvianum (setting [7]). Also, the fruition rate with Lycopersicon peruvianum (setting [8]) is on record as 0%; in the series on Lycopersicon peruvianum (setting [9]), 0%; in the series on Lycopersicon peruvianum (setting [10]), 0%; in the series on Lycopersicon peruvianum (setting [11]), >50%. This compound gave a fertilization rate in the series with 20-Century pear of 51%.

As for `CCOCCOCC(=O)[O-].CCOCCOCC(=O)[O-].[Zn+2]` [Zn(II) 2-ethoxy ethoxy acetate], the self-pollination rate was >5% with Hongro apple (concentration 0.01 mM); >20% in the series on Hongro apple (concentration 0.03 mM); >50% with Hongro apple (concentration 0.10 mM); >60% in the series on Hongro apple (concentration 0.30 mM); >60% with Hongro apple (concentration 1.0 mM).

On to `COCCOCCOCC(=O)[O-].COCCOCCOCC(=O)[O-].[Zn+2]` [Zn(II) 2-{2-(2-methoxyethoxy)ethoxy} acetate], for which the self-pollination rate is >10% with Hongro apple (concentration 0.01 mM); >30% with Hongro apple (concentration 0.03 mM); >50% in the series with Hongro apple (concentration 0.10 mM); >50% in the series with Hongro apple (concentration 0.30 mM); >50% in the series on Hongro apple (concentration 1.0 mM).

For the compound `O=C([O-])[C@H](O)[C@@H](O)[C@H](O)[C@H](O)CO.O=C([O-])[C@H](O)[C@@H](O)[C@H](O)[C@H](O)CO.[Zn+2]` [Zn(II) Gluconate], in series [1], the “OD (2.0 mM)” value came out at 0.73. Besides, the fertilization rate in the series on 20-Century pear worked out at 48%.

`O=S(=O)([O-])[O-].[Zn+2]` [ZnSO4, reference compound]: in series [1], the “OD (2.0 mM)” value is 0.72. Further, the side-effect index in the series on Hongro apple flowers (1.0 mM) is 2; in the series with Hongro apple flowers (5.0 mM) it was 5; with Hongro apple flowers (20.0 mM), 5. The fruition rate is 0% with Lycopersicon peruvianum (setting [12]); 0% with Lycopersicon peruvianum (setting [13]); 0% in the series with Lycopersicon peruvianum (setting [14]); 0% with Lycopersicon peruvianum (setting [15]); <5% with Lycopersicon peruvianum (setting [16]); >5% in the series on Lycopersicon peruvianum (setting [17]). Also, the fruition rate in the series with Lycopersicon peruvianum (setting [18]) is reported as >5%; with Lycopersicon peruvianum (setting [19]), >10%; in the series with Lycopersicon peruvianum (setting [20]), >10%; in the series with Lycopersicon peruvianum (setting [21]), 0%. For the same compound, the self-pollination rate with Hongro apple (concentration 0.01 mM) is on record as 0%; in the series on Hongro apple (concentration 0.03 mM) it was 0%; in the series with Hongro apple (concentration 0.10 mM), 0%; with Hongro apple (concentration 0.30 mM), 0%; with Hongro apple (concentration 1.0 mM) it was <10%.
